Laboratory results from patent publication US12497359B2, “Acrylamide derivatives” (NRG Therapeutics Ltd, priority 2020, dated 2025).
Values after ≈ are worked out from the molar mass of the structure shown.

Columns and labels:
mPTP = mPTP activity assay in isolated rat brain mitochondria; assay type: biochemical; details: for mPTP Rat brain pIC50: isolated rat brain mitochondria
Description: MPTP activity was measured in brain mitochondria freshly isolated from female Sprague Dawley (250 to 300 gram) rats. Anaesthetised rats were perfused in-situ with ˜40 ml cold Dulbecco's Phosphate Buffered Saline (DPBS), then brains dissected and transferred into 30 ml Isolation Buffer (225 mM mannitol, 75 mM sucrose, 1 mM EGTA, adjusted to pH 7.4 with 1 M NaOH). The brain was minced using tweezers and a scalpel into ˜5 mm pieces then transferred into a 50 ml Potterton Dounce homogenization tube on ice containing 10 ml ice-cold isolation buffer (as above with addition of Complete Protease inhibitor; 1 tablet per 50 ml buffer). Homogenisation was carried out using a teflon pestle at 1800 rpm. The slurry was centrifuged at 2000 g for 10 min at 4° C., then the supernatant centrifuged at 12,000 g for 9 min. The pellet was resuspended with a dounce homogeniser in isolation buffer as above but with the addition of 0.02% digitonin, centrifuged at 12,000 g for 11 min and finally resuspended in 5 ml modified isolation buffer (as above but with EGTA reduced to 0.1 mM).
Test compounds were prepared in 384 well polypropylene assay plates as described above for the liver mitochondria assay. A stock mitochondria/Fluo5N assay solution was prepared in 5.6 ml assay buffer (120 mM mannitol, 40 mM MOPS, 5 mM KH2PO4, 60 mM KCl, 10 mM pyruvate, 2 mM malate, 2 mM MgCl2, 20 μM ADP, 1.26 μM oligomycin A, adjusted to pH 7.4) supplemented with Fluo5N pentapotassium salt (2 μM) and 1 ml mitochondria suspension, then transferred (15 μl) into the assay plate containing test compounds and incubated for 10 min at RT. Assay plates were then transferred to a FLIPR Tetra plate reader (Molecular Devices). Dye fluorescence was then measured every 3 sec for a total of 10 min. After 12 sec, a 2.5 μl bolus of Ca2+(75 μM) was added from a source plate containing 675 μM CaCl2 in FLIPR assay buffer. IC50 values for test compounds were calculated using the fluorescence value collected at the 10 min timepoint with % inhibition calculated using the DMSO control and cyclosporin A values at […].

[1] = Microsomal clearance assay, rat liver microsomes; assay type: in vitro ADME; details: average value from two experiments, read-out: Rat liver microsomes intrinsic clearance (CLint)
Description: The microsomal stability of test compounds was evaluated using rat liver microsomes (BioIVT) with and without the cofactors nicotinamide adenine dinucleotide phosphate (NADPH) and uridine-diphosphate-glucuronic acid (UDPGA). Reactions were performed in a final volume of 250 μl pre-warmed (37° C.) 100 mM phosphate buffer containing 5 mM MgCl2, 0.025 mg/ml alamethicin, and 0.5 mg/ml rat liver microsomes. NADPH and UDPGA were included at 1 mM and 2 mM respectively, where appropriate. Reactions were started with the addition of 1 μM (final concentration) test compound. Verapamil was used as the positive control. Solutions were incubated in a water bath at 37° C. and aliquots collected at 0.5, 5, 15, 30 and 60 min. Reactions were stopped by the addition of 5 volumes of cold acetonitrile with internal standards (200 nM caffeine and 100 nM tolbutamide). Samples were centrifuged at 3220 g for 40 min. An aliquot of supernatant was diluted 1:1 In ultra-pure H20, then used for LC-MS/MS analysis. Peak areas were determined from extracted ion chromatograms. The slope value, k, was determined by linear regression of the natural logarithm of the remaining percentage of the parent drug vs. incubation time curve. The in vitro half-life (in vitro t1/2) was determined from the slope value: in vitro t1/2=0.693/k. Conversion of the in vitro t1/2 (min) into the in vitro intrinsic clearance (in vitro CLint, in μL/min/mg protein) was done using the following equation (mean of duplicate determinations): in vitro Clint=(0.693/t1/2)*(Vol of incubation (μl)/amount of protein (mg)).

FaSSIF solubility = assay type: physicochemical; details: kinetic from dmso stock, Fasted state simulated intestinal fluid, 2 hr at 25° C.
Description: Test compounds were prepared as 10 mM stocks in DMSO and 15 μl samples transferred in duplicate into 1.5 mL glass flat bottom vials (BioTech Solutions). Fasted state simulated intestinal fluid (FaSSIF) or PBS (pH 7.4) was added to each vial to final volume of 500 μl. One PTFE encapsulated stir stick (V&P Scientific) was placed in each vial before sealing with PTFE/SIL plugs (BioTech Solutions). Vials were shaken at 1100 rpm for 2 hr at 25° C. Samples were then filtered through MultiScreen Solvinert filter plates (Millipore) via vacuum filtration. Aliquots of filtrate (5 μl) plus 5 μl DMSO were diluted in 490 μl 50% acetonitrile in water containing internal standard. The filtrate was analysed and quantified against a standard of known concentration using LC-MS/MS. Solubility values of the test compound and control compound were calculated as follows: [Sample]=(Area ratiosample*INJ VOL STD*DFsample*[STD])/(Area ratio STD*INJ VOLsample).

[2] = Hepatocyte clearance assay, human; assay type: in vitro ADME; details: cryopreserved primary human hepatocytes, average value from two experiments, read-out: Human heps intrinsic clearance (CLint)
Description: In vitro clearance studies were performed in primary rat and human hepatocytes (BioIVT). Vials of cryopreserved rat or human hepatocytes were thawed in a 37° C. water bath for 2 min. Cells were transferred into thawing medium (Williams' Medium E containing 30% Percoll, 1× GlutaMAX-1, 15 mM HEPES, 5% fetal bovine serum (FBS), 4 μg/ml insulin, 1 μM dexamethasone), centrifuged at 100 g for 10 min then resuspended in culture medium (Leibovitz's L-15 Medium) at a concentration of 0.5×10^6 viable cells/mL (number of viable cells assessed using AO/PI staining). Hepatocytes (198 μL) were transferred into wells of a 96-well non-coated plate and placed in a 37° C. incubator for 10 min. Test compound solutions were prepared from 10 mM stocks in DMSO, diluted to 100 μM in 50% (v/v in water) acetonitrile. Test compound samples (2 μl) were added to each well of hepatocytes and incubated at 37° C. Samples (25 μl) were collected at t=0, 15, 30, […] and 120 min, mixed with 6 volumes (150 μl) of acetonitrile containing internal standard (100 nM alprazolam, 200 nM caffeine and 100 nM tolbutamide), vortexed for 5 min and centrifuged for 45 min at 3220 g. An aliquot of supernatant (100 μL) was diluted with 100 μL ultra-pure water, and the mixture was used for LC/MS/MS analysis. All incubations were performed in duplicate. Peak areas were determined from extracted ion chromatograms. The slope value, k, was determined by linear regression of the natural logarithm of the remaining percentage of the parent drug vs. incubation time curve. The in vitro half-life (in vitro t1/2) was determined from the slope value: in vitro t1/2=0.693/k. Conversion of the in vitro t1/2 (in min) into the in vitro intrinsic clearance (in vitro CLint, in μL/min/1×10^6 cells) was done using the following equation (mean of duplicate determinations): • in vitro CLint=kV/N • V=incubation volume (0.2 mL) • N=number of hepatocytes per well (0.1×10^6 cells). Microsomal Clearance Assay

O=C(/C=C/c1ccc2cn[nH]c2c1)N[C@@H]1CCc2ccccc21 [Example 3, (R,E)-N-(2,3-dihydro-1H-inden-1-yl)-3-(1H-indazol-6-yl)acrylamide]
mPTP Rat brain pIC50 (mPTP): 7.3
microsomal CLint at 1 µM [1]: 52 µL/min/mg
solubility at 2 h (FaSSIF solubility): 7 µM (≈ 2.12 µg/mL)

C[C@@H]1COc2ccccc2[C@@H]1NC(=O)/C=C/c1ccc2cn[nH]c2c1 (single isomer, unassigned) [Example 15d, (E)-3-(1H-indazol-6-yl)-N-(3-methylchroman-4-yl)acrylamide]
mPTP Rat brain pIC50 (mPTP): 7.6
microsomal CLint at 1 µM [1]: < 3 µL/min/mg
solubility at 2 h (FaSSIF solubility): 7 µM (≈ 2.33 µg/mL)
hepatocyte CLint at 1 µM [2]: < 3 µL/min/1e6 cells

C[C@H]1Cc2ccccc2[C@@H]1NC(=O)/C=C/c1ccc2cn[nH]c2c1 (single isomer, unassigned) [Example 14c]
activity in the rat brain mitochondria assay (mPTP; comparison among Example compounds, in words): highest activity
mPTP Rat brain pIC50 (mPTP): 8.4
solubility at 2 h (FaSSIF solubility): 8 µM (≈ 2.54 µg/mL)
hepatocyte CLint at 1 µM [2]: 40.4 µL/min/1e6 cells

COCc1ccccc1NC(=O)/C=C/c1ccc2cn[nH]c2c1 [Example 29, (E)-3-(1H-indazol-6-yl)-N-(2-(methoxymethyl)phenyl)acrylamide]
mPTP Rat brain pIC50 (mPTP): 6.8
microsomal CLint at 1 µM [1]: 10 µL/min/mg
solubility at 2 h (FaSSIF solubility): 73 µM (≈ 22.4 µg/mL)
hepatocyte CLint at 1 µM [2]: < 3 µL/min/1e6 cells
